What was measured:
Assay type in all cases: biochemical
[1] = target: T1, cloned human μ-opioid receptor (Homo sapiens, UniProt P35372); assay: Inhibition of DAMGO-stimulated [35S]GTPγS binding; settings: antagonism of DAMGO-stimulated [35S]GTPγS binding, cloned human μ receptor
T1 construct: expressed in transfected cells

[2] = target: T2, cloned human δ-opioid receptor (Homo sapiens, UniProt P41143); assay: Inhibition of DPDPE-stimulated [35S]GTPγS binding; settings: antagonism of DPDPE-stimulated [35S]GTPγS binding, cloned human δ receptor
T2 construct: expressed in transfected cells

[3] = target: T3, cloned human κ-opioid receptor (Homo sapiens, UniProt P41145); assay: Inhibition of U69,593-stimulated [35S]GTPγS binding; settings: for efficacy for the κ opioid receptor in words: [35S]GTPγS in vitro functional assay; for κ, U69,593 Ke: antagonism of U69,593-stimulated [35S]GTPγS binding, cloned human κ receptor; for δ/κ / μ/κ: ratio of Ke values; for δ/κ: selectivity for κ relative to δ; for μ/κ: selectivity for κ relative to μ
T3 construct: expressed in transfected cells
T3 sequence (P41145 whole entry): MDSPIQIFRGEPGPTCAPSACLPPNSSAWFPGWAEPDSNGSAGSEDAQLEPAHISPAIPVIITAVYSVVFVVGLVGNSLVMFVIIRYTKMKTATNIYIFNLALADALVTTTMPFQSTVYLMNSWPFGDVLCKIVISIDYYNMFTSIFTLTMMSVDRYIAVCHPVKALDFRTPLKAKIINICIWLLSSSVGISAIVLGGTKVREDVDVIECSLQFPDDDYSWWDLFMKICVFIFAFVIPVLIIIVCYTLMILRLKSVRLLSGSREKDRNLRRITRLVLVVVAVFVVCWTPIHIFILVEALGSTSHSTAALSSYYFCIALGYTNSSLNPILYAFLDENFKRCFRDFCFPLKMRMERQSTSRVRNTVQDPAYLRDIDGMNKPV

T1 sequence (P35372 whole entry): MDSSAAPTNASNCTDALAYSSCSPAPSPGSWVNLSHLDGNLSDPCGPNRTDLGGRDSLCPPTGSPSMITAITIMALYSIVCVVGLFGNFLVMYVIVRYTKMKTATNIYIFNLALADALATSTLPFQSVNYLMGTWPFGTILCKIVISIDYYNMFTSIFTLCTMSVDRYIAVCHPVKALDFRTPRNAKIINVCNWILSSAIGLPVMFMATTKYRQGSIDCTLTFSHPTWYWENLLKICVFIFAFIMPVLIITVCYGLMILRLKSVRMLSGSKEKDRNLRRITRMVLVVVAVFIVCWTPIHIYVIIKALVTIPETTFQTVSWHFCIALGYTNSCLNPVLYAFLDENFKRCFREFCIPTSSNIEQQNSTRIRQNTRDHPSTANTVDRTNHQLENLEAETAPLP
T2 sequence (P41143 whole entry): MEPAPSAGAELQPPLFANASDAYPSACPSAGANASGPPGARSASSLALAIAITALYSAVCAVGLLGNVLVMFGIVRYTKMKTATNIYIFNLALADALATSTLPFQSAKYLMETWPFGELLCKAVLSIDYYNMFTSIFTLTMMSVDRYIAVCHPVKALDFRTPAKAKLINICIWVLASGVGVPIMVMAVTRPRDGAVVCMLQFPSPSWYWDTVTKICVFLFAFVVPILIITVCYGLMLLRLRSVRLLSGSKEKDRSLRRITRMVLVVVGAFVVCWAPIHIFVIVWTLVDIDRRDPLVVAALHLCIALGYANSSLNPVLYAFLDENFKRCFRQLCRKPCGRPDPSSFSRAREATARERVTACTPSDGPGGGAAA

| Compound | μ, DAMGO Ke [1] [nM] | δ, DPDPE Ke [2] [nM] | efficacy for the κ opioid receptor in words [3] | κ, U69,593 Ke [3] [nM] | δ/κ [3] | μ/κ [3] |
| --- | --- | --- | --- | --- | --- | --- |
| CC(C)[C@@H](CN1CCN(c2cccc(O)c2)[C@@H](C)C1)NC(=O)c1ccc(Oc2ccccc2)cc1.Cl.Cl [Compound 6a, N-(1S)-1-{[(3S)-4-(3-Hydroxyphenyl)-3-methylpiperazin-1-yl]methyl}-2-methylpropyl-4-phenoxybenzamide Dihydrochloride] | 51 ± 14.9 | 570 ± 79 | high efficacy (low Ke values) | 0.85 ± 0.35 | – | – |
| Cc1ccc(Oc2ccc(C(=O)N[C@H](CN3CCN(c4cccc(O)c4)[C@@H](C)C3)C(C)C)cc2)cc1.Cl.Cl [Compound 6b, N-(1S)-1-{[(3S)-4-(3-Hydroxyphenyl)-3-methylpiperazin-1-yl]methyl}-2-methylpropyl-4-(4-methylphenoxy)benzamide Dihydrochloride] | 20 ± 6 | 188 ± 33 | high efficacy (low Ke values) | 0.69 ± 0.25 | 275 | 29 |
| CC(C)[C@@H](CN1CCN(c2cccc(O)c2)[C@@H](C)C1)NC(=O)c1ccc(Oc2cccc(F)c2)cc1.Cl.Cl [Compound 6c, N-(1S)-1-{[(3S)-4-(3-Hydroxyphenyl)-3-methylpiperazin-1-yl]methyl}-2-methylpropyl-4-(3-fluorophenoxy)benzamide Dihydrochloride] | 30 ± 9.0 | 174 ± 4.5 | – | 1.48 ± 0.51 | 118 | 16 |
| Cc1cccc(Oc2ccc(C(=O)N[C@H](CN3CCN(c4cccc(O)c4)[C@@H](C)C3)C(C)C)cc2)c1.Cl.Cl [Compound 6d, N-(1S)-1-{[(3S)-4-(3-Hydroxyphenyl)-3-methylpiperazin-1-yl]methyl}-2-methylpropyl-4-(3-methylphenoxy)benzamide Dihydrochloride] | 18 ± 6 | 62 ± 20 | high efficacy (low Ke values) | 0.18 ± 0.06 | – | – |
| COc1ccccc1Oc1ccc(C(=O)N[C@H](CN2CCN(c3cccc(O)c3)[C@@H](C)C2)C(C)C)cc1.Cl.Cl [Compound 6e, N-(1S)-1-{[(3S)-4-(3-Hydroxyphenyl)-3-methylpiperazin-1-yl]methyl}-2-methylpropyl-4-(2-methoxyphenoxy)benzamide Dihydrochloride] | 127 ± 78 | 869 ± 205 | – | 5.60 ± 1.41 | 155 | 25 |
| COc1cccc(Oc2ccc(C(=O)N[C@H](CN3CCN(c4cccc(O)c4)[C@@H](C)C3)C(C)C)cc2)c1.Cl.Cl [Compound 6f, N-(1S)-1-{[(3S)-4-(3-Hydroxyphenyl)-3-methylpiperazin-1-yl]methyl}-2-methylpropyl-4-(3-methoxyphenoxy)benzamide Dihydrochloride] | 33 ± 14 | 1502 ± 412 | high efficacy (low Ke values) | 0.63 ± 0.13 | 2384 | 52 |
| CC(C)[C@@H](CN1CCN(c2cccc(O)c2)[C@@H](C)C1)NC(=O)c1ccc(Oc2ccc(O)cc2)cc1.Cl.Cl [Compound 6g, N-(1S)-1-{[(3S)-4-(3-Hydroxyphenyl)-3-methylpiperazin-1-yl]methyl}-2-methylpropyl-4-(4-hydroxyphenoxy)benzamide Dihydrochloride] | 71 ± 19 | 1696 ± 377 | – | 8.6 ± 3.7 | 1.97 | 8 |
| CC(C)[C@@H](CN1CCN(c2cccc(O)c2)[C@@H](C)C1)NC(=O)c1ccc(Oc2ccccc2O)cc1.Cl.Cl [Compound 6h, N-(1S)-1-{[(3S)-4-(3-Hydroxyphenyl)-3-methylpiperazin-1-yl]methyl}-2-methylpropyl-4-(2-hydroxyphenoxy)benzamide Dihydrochloride] | 125 ± 10 | 960 ± 224 | – | 1.06 ± 0.26 | – | – |

— patent US9512105B2, “1-substituted 4-arylpiperazine as kappa opioid receptor antagonists” (RESEARCH TRIANGLE INSTITUTE, priority 2011, dated 2016)
